In patent US9034921B2, “Diphenylmethane derivatives as SGLT2 inhibitors” (GREEN CROSS CORPORATION, priority 2011, dated 2015):

biological target: human SGLT2 (Homo sapiens (Human), UniProt P31639); assay: Inhibitory effects on human SGLT2 activities (14C-AMG uptake, sodium-dependent glucose transport assay); type: cell-based; settings: CHO cells stably expressing hSGLT2, 37° C., 2 h, single determinations
Source text: Test 1: Cloning and Cell Line Construction for Human SGLT2
Human SGLT2 (hSGLT2) gene was amplified by PCR from cDNA-Human Adult Normal Tissue Kidney (Invitrogen). The hSGLT2 sequence was cloned into pcDNA3.1(+) for mammalian expression and stably transfected into chinese hamster ovary (CHO) cells. SGLT2-expressing clones were selected based on resistance to G418 antibiotic (Geneticin) and activity in the ^14C-α-methyl-D-glucopyranoside (^14C-AMG) uptake assay.
Test 2: Inhibitory Effects on Human SGLT2 Activities
For sodium-dependent glucose transport assay, cells expressing hSGLT2 were seeded into a 96-well culture plate at a density of 5×10^4 cells/well in RPMI medium 1640 containing 10% fetal bovine serum. The cells were used 1 day after plating. They were incubated in pretreatment buffer (10 mM HEPES, 5 mM Tris, 140 mM choline chloride, 2 mM KCl, 1 mM CaCl2, and 1 mM MgCl2, pH 7.4) at 37° C. for 10 min. They were then incubated in uptake buffer (10 mM HEPES, 5 mM Tris, 140 mM NaCl, 2 mM KCl, 1 mM CaCl2, 1 mM MgCl2, and 1 mM ^14C-nonlabeled AMG pH 7.4) containing ^14C-labeled AMG (8 μM) and the inventive compound or dimethyl sulfoxide (DMSO) vehicle at 37° C. for 2 h. Cells were washed twice with washing buffer (pretreatment buffer containing 10 mM AMG at room temperature) and then the radioactivity was measured using a liquid scintillation counter. IC50 was determined by nonlinear regression analysis using GraphPad PRISM [Katsuno, K. et al. J. Pharmacol. Exp. Ther. 2007, 320, 323-330; Han, S. et al. Diabetes, 2008, 57, 1723-1729].

Sequence of human SGLT2 (P31639 whole entry): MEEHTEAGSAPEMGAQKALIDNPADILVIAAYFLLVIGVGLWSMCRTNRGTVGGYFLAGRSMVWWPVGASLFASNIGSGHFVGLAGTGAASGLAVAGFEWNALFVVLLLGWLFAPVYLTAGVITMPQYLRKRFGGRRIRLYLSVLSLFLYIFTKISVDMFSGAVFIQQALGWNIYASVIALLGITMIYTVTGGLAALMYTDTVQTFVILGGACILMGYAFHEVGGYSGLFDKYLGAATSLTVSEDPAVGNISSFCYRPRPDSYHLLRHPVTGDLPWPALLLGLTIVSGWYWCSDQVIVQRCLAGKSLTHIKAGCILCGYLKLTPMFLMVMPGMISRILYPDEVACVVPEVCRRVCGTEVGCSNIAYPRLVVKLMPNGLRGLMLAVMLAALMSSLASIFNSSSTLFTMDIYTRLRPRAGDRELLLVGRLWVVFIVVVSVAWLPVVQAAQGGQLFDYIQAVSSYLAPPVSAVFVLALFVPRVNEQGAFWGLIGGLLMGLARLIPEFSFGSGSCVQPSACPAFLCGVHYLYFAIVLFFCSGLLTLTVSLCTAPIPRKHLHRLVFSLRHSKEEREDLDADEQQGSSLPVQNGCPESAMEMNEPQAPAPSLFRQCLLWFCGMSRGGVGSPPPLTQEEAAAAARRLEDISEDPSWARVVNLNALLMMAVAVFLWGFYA

Compared with `COc1ccc(Cc2cc([C@@H]3O[C@H](CO)[C@@H](O)[C@H](O)[C@H]3O)c3c(c2Br)CCC3)cc1` [Example E001, (2S,3R,4R,5S,6R)-2-(7-Bromo-6-(4-methoxybenzyl)-2,3-dihydro-1H-inden-4-yl)-6-(hydroxymethyl)tetrahydro-2H-pyran-3,4,5-triol], `CCOc1ccc(Cc2cc([C@@H]3O[C@H](CO)[C@@H](O)[C@H](O)[C@H]3O)c3c(c2Br)CCC3)cc1` [Example E003, (2S,3R,4R,5S,6R)-2-(7-Bromo-6-(4-ethoxybenzyl)-2,3-dihydro-1H-inden-4-yl)-6-(hydroxymethyl)tetrahydro-2H-pyran-3,4,5-triol] is 1.6-fold lower in IC50: 1.15 nM for the first, 0.738 nM for the second.

Going from `CCOc1ccc(Cc2cc3c(c([C@@H]4O[C@H](CO)[C@@H](O)[C@H](O)[C@H]4O)c2)CCC3)cc1` [Example E002, (2S,3R,4R,5S,6R)-2-(6-(4-Ethoxybenzyl)-2,3-dihydro-1H-inden-4-yl)-6-(hydroxymethyl)tetrahydro-2H-pyran-3,4,5-triol] to `CCOc1ccc(Cc2cc([C@@H]3O[C@H](CO)[C@@H](O)[C@H](O)[C@H]3O)c3c(c2Cl)CCC3)cc1` [Example E008, (2S,3R,4R,5S,6R)-2-(7-Chloro-6-(4-ethoxybenzyl)-2,3-dihydro-1H-inden-4-yl)-6-(hydroxymethyl)tetrahydro-2H-pyran-3,4,5-triol], the IC50 falls from 9 nM to 0.551 nM (16-fold).

`CCc1ccc(Cc2cc([C@@H]3O[C@H](CO)[C@@H](O)[C@H](O)[C@H]3O)c3c(c2Br)CCC3)cc1` [Example E004, (2S,3R,4R,5S,6R)-2-(7-Bromo-6-(4-ethylbenzyl)-2,3-dihydro-1H-inden-4-yl)-6-(hydroxymethyl)tetrahydro-2H-pyran-3,4,5-triol] and `CCc1ccc(Cc2cc([C@@H]3O[C@H](CO)[C@@H](O)[C@H](O)[C@H]3O)c3c(c2Cl)OCCC3)cc1` [Example E023, (2S,3R,4R,5S,6R)-2-(8-Chloro-7-(4-ethylbenzyl)chroman-5-yl)-6-(hydroxymethyl)tetrahydro-2H-pyran-3,4,5-triol] are within 1.5-fold of each other in IC50: 0.661 nM for the first, 0.753 nM for the second.

Going from `COc1ccc(Cc2cc([C@@H]3O[C@H](CO)[C@@H](O)[C@H](O)[C@H]3O)c3c(c2Cl)CCC3)cc1` [Example E005, (2S,3R,4R,5S,6R)-2-(7-Chloro-6-(4-methoxybenzyl)-2,3-dihydro-1H-inden-4-yl)-6-(hydroxymethyl)tetrahydro-2H-pyran-3,4,5-triol] to `COc1ccc(Cc2cc([C@@H]3O[C@H](CO)[C@@H](O)[C@H](O)[C@H]3O)c3c(c2F)CCC3)cc1` [Example E006, (2S,3R,4R,5S,6R)-2-(7-Fluoro-6-(4-methoxybenzyl)-2,3-dihydro-1H-inden-4-yl)-6-(hydroxymethyl)tetrahydro-2H-pyran-3,4,5-triol], the IC50 rises from 0.681 nM to 2.03 nM (3-fold).

`COc1ccc(Cc2cc([C@@H]3O[C@H](CO)[C@@H](O)[C@H](O)[C@H]3O)c3c(c2C)CCC3)cc1` [Example E007, (2R,3S,4R,5R,6S)-2-(Hydroxymethyl)-6-(6-(4-methoxybenzyl)-7-methyl-2,3-dihydro-1H-inden-4-yl)tetrahydro-2H-pyran-3,4,5-triol] and `COc1ccc(Cc2cc([C@@H]3O[C@H](CO)[C@@H](O)[C@H](O)[C@H]3O)c3c(c2Cl)CCCO3)cc1` [Example E016, (2S,3R,4R,5S,6R)-2-(5-Chloro-6-(4-methoxybenzyl)chroman-8-yl)-6-(hydroxymethyl)tetrahydro-2H-pyran-3,4,5-triol] are within 1.5-fold of each other in IC50: 0.793 nM for the first, 0.978 nM for the second.

`CCc1ccc(Cc2cc([C@@H]3O[C@H](CO)[C@@H](O)[C@H](O)[C@H]3O)c3c(c2Cl)CCO3)cc1` [Example E010, (2S,3R,4R,5S,6R)-2-(4-Chloro-5-(4-ethylbenzyl)-2,3-dihydrobenzofuran-7-yl)-6-(hydroxymethyl)tetrahydro-2H-pyran-3,4,5-triol] and `CCc1ccc(Cc2cc([C@@H]3O[C@H](CO)[C@@H](O)[C@H](O)[C@H]3O)c3c(c2Cl)CCCO3)cc1` [Example E017, (2S,3R,4R,5S,6R)-2-(5-Chloro-6-(4-ethylbenzyl)chroman-8-yl)-6-(hydroxymethyl)tetrahydro-2H-pyran-3,4,5-triol] are within 1.5-fold of each other in IC50: 0.884 nM for the first, 0.845 nM for the second.

Compared with `CCOc1ccc(Cc2cc([C@@H]3O[C@H](CO)[C@@H](O)[C@H](O)[C@H]3O)c3c(c2Cl)CC(C)O3)cc1` (stereo partly drawn) [Example E011, (2S,3R,4R,5S,6R)-2-(4-Chloro-5-(4-ethoxybenzyl)-2-methyl-2,3-dihydrobenzofuran-7-yl)-6-(hydroxymethyl)tetrahydro-2H-pyran-3,4,5-triol], `CCOc1ccc(Cc2cc([C@@H]3O[C@H](CO)[C@@H](O)[C@H](O)[C@H]3O)c3c(c2Cl)CCO3)cc1` [Example E022, (2S,3R,4R,5S,6R)-2-(4-Chloro-5-(4-ethoxybenzyl)-2,3-dihydrobenzofuran-7-yl)-6-(hydroxymethyl)tetrahydro-2H-pyran-3,4,5-triol] is 1.5-fold lower in IC50: 1.28 nM for the first, 0.833 nM for the second. The second is the more potent here.

`CCOc1ccc(Cc2cc([C@@H]3O[C@H](CO)[C@@H](O)[C@H](O)[C@H]3O)c3c(c2Cl)CCCO3)cc1` [Example E012, (2S,3R,4R,5S,6R)-2-(5-Chloro-6-(4-ethoxybenzyl)chroman-8-yl)-6-(hydroxymethyl)tetrahydro-2H-pyran-3,4,5-triol] and `CCOc1ccc(Cc2cc([C@@H]3O[C@H](CO)[C@@H](O)[C@H](O)[C@H]3O)c3c(c2Cl)OCC3)cc1` [Example E024, (2S,3R,4R,5S,6R)-2-(7-Chloro-6-(4-ethoxybenzyl)-2,3-dihydrobenzofuran-4-yl)-6-(hydroxymethyl)tetrahydro-2H-pyran-3,4,5-triol] are within 1.5-fold of each other in IC50: 1.55 nM for the first, 1.52 nM for the second.

`CCOc1ccc(Cc2cc([C@@H]3O[C@H](CO)[C@@H](O)[C@H](O)[C@H]3O)c3c(c2Cl)OCCO3)cc1` [Example E013, (2S,3R,4R,5S,6R)-2-(8-Chloro-7-(4-ethoxybenzyl)-2,3-dihydrobenzo[b][1,4]dioxin-5-yl)-6-(hydroxymethyl)tetrahydro-2H-pyran-3,4,5-triol] and `COc1ccc(Cc2cc([C@@H]3O[C@H](CO)[C@@H](O)[C@H](O)[C@H]3O)c3c(c2Cl)OCC3)cc1` [Example E019, (2S,3R,4R,5S,6R)-2-(7-Chloro-6-(4-methoxybenzyl)-2,3-dihydrobenzofuran-4-yl)-6-(hydroxymethyl)tetrahydro-2H-pyran-3,4,5-triol] are within 1.5-fold of each other in IC50: 1.27 nM for the first, 1.53 nM for the second.

Compared with `CCc1ccc(Cc2cc([C@@H]3O[C@H](CO)[C@@H](O)[C@H](O)[C@H]3O)c3c(c2Cl)OCC3)cc1` [Example E020, (2S,3R,4R,5S,6R)-2-(6-(4-Ethylbenzyl)-7-chloro-2,3-dihydrobenzofuran-4-yl)-6-(hydroxymethyl)-tetrahydro-2H-pyran-3,4,5-triol], `COc1ccc(Cc2cc([C@@H]3O[C@H](CO)[C@@H](O)[C@H](O)[C@H]3O)c3c(c2Cl)CCO3)cc1` [Example E021, (2S,3R,4R,5S,6R)-2-(4-Chloro-5-(4-methoxybenzyl)-2,3-dihydrobenzofuran-7-yl)-6-(hydroxymethyl)tetrahydro-2H-pyran-3,4,5-triol] is 2.4-fold higher in IC50: 0.715 nM for the first, 1.72 nM for the second.

Compound `OC[C@H]1O[C@@H](c2ccc(Cl)c(Cc3ccc4ncccc4c3)c2)[C@H](O)[C@@H](O)[C@@H]1O` [Example E025, (2S,3R,4R,5S,6R)-2-(4-Chloro-3-(quinolin-6-ylmethyl)phenyl)-6-(hydroxymethyl)tetrahydro-2H-pyran-3,4,5-triol] has an IC50 of 1.85 nM.
